This note sets out measurements from a melting point compilation (Tetko et al.; mined from patent text by program, amines drawn as free bases though some values may be those of a salt).

Molecules are shown by their SMILES.

One may read the melting point as the temperature, or range, at which the solid turns liquid. The molecule `CCC(C)CNC(=O)c1ccc2cccc(Cc3ccc(C(=O)NS(=O)(=O)c4ccccc4C)cc3OC)c2c1` (stereo not given) yielded a melting point of 204 °C.

Molecule `Nc1nc2ccc(CCN3CCC(C(=O)c4ccccc4)CC3)cc2s1` showed a melting point of 186 to 188 °C.

`COc1cc(COc2nn(-c3ccc(C(F)(F)F)cc3)cc2/C=C/C(=O)OCOC(=O)C(C)(C)C)ccc1OCc1nc(-c2ccccc2)oc1C` registered a melting point of 131 to 132 °C.

`CC(C)(C)OC(=O)C(O)CC1CCC(=O)N1` (stereo not given) gave a melting point of 110 to 112 °C.

`COC(=O)c1ccc(NCCCCCCCCCCCCCCCCBr)cc1` returned a melting point of 92 to 93 °C.

On to `COc1ccc(NC(=O)Nc2ccc(Cl)c(Cl)c2)cc1N`, for which the melting point was in the range of 202 to 204 °C.

The molecule `Cn1cc(C(=O)c2ccnc(Cl)c2)cc1C(=O)c1ccc(Cl)cc1` yielded a melting point of 182 to 184 °C.

Molecule `CC(C)OC(=O)c1cc(OC(C)C)ccc1[N+](=O)[O-]` came in with a melting point of 45 to 50 °C.

On to `Nc1ccc(Cl)cc1C1=CCN(C/C=C/c2ccc(Cl)cc2)CC1`, for which the melting point lay in the range of 168 to 170 °C.

Molecule `COc1cnnc(O)c1` gave a melting point of 253 to 255 °C.

`CCCCn1ccc(N2CCC(c3ccccc3)CC2)c(Cl)c1=O` yielded a melting point of 149 °C.

Turning to `CCOC(=O)C1Cc2ccccc2N1C(=O)C(C)Br` (stereo not given), the melting point was in the range of 101 to 103 °C.

In turn, `CC(Oc1ncn(-c2cccc(C(F)(F)F)c2)n1)C(N)=O` (stereo not given) gave a melting point of 147 to 149 °C.

The molecule `CCCNc1cn(-c2cccnc2)nc1C` returned a melting point of 65 to 67 °C.

For the molecule `COc1nc(Nc2ccc(F)cc2F)c(C(=O)Cl)cc1F`, the melting point fell in the range of 153 to 154 °C.

`Cc1noc(NS(=O)(=O)c2cc(Br)c(Br)s2)c1Br` yielded a melting point of 153 to 155 °C.

The molecule `CC(c1ccc(NC=O)c(N)c1)n1ccnc1` (stereo not given) had a melting point of 212 °C.

`CC(C)c1ccc(-c2cc(-c3cccc(C(=O)O)c3)ccn2)cc1` gave a melting point of 247 to 249 °C.

The molecule `Cc1ccc(-c2cc(=O)cc(C(=O)O)o2)cc1` gave a melting point of 237 to 238 °C.

For the molecule `Nc1nc2sc(CCC3CCCCC3)nn2c(=O)c1[N+](=O)[O-]`, the melting point fell in the range of 249 to 251 °C.

The molecule `CCOC(=O)N1CCN(c2nc(NC(C)=O)ccc2[N+](=O)[O-])CC1` gave a melting point of 168 to 169 °C.

In turn, `COCCOC(=O)OC[C@@H](O)[C@@H]1CC(c2ccc(-c3ccc(N4C[C@H](Cn5ccnn5)OC4=O)cc3F)cn2)=NO1` returned a melting point of 125 °C.

As to `N#CC(=C(O)C1CCN(Cc2ccccc2)CC1)c1ccccc1`, the melting point was 192 °C.

In the case of `CCCCc1nc2c(C(F)(F)F)cccc2c(O)c1C(=O)O`, the melting point is 140 to 141 °C.

Regarding `COCCNc1ccc2ncnc(Nc3ccc(F)c(Cl)c3)c2c1`, the melting point lay within 152 to 154 °C.

In turn, `N#Cc1nn(-c2c(Cl)cc(C(F)(F)F)cc2Cl)cc1OC(F)(F)C(F)Cl` (racemic) showed a melting point of 99 to 101 °C.

Consider `CC(C)(C)c1cc(-n2ccc(=O)[nH]c2=O)cc(Br)c1Cl`, for which the melting point was above 280 °C.

`CCC(C(=O)O)N(C(=O)c1cccn1-c1ccc(F)cc1)c1ccc(N2CCCCC2)c(C#N)c1` (stereo not given) had a melting point of 138 to 139 °C.

Turning to `Nc1ccc(Cl)cc1-c1ncn[nH]1`, the melting point was in the range of 170 to 175 °C.

The molecule `COc1ccc(COc2nn(Cc3ccccc3)cc2C=O)cc1OCc1nc(-c2ccco2)oc1C` showed a melting point of 142 to 143 °C.

With `COc1c(-c2cc3c(s2)CCC(C)(C)C3O)ccc2c(=O)c(C(=O)O)cn(C3CC3)c12` (stereo not given), the melting point was in the range of 93 to 94 °C.

`CS(=O)(=O)c1ccc(-c2sc(C(F)(F)F)nc2-c2ccc(F)cc2)cc1` showed a melting point of 168 to 170 °C.

In turn, `CCCCCCCCCCC[C@@H](C[C@@H]1OC(=O)[C@H]1CCCCCC)OCCC(N)=O` registered a melting point of 35 °C.

For `CCOc1ccc2[nH]cc(C(=O)NCc3ccccc3)c(=O)c2n1`, the melting point came out at 199 °C.

Molecule `CC(=O)c1ccc(-c2ccc(C#N)o2)cc1` came in with a melting point of 122 to 125 °C.
